# Measured values from PubChem BioAssay AID220 (DTP/NCI, 2004).
# Inconclusive results are not listed.
# Tested on: CD8F1 mice, subcutaneous mammary adenocarcinoma, T/C%
# Test: NCI In Vivo Anticancer Drug Screen. Data for tumor model Mammary Adenocarcinoma CD8F1 (subcutaneous) in CD8F1
# Details: higher = larger tumour
# Protocol: The antitumor activity of compounds was measured in mice bearing transplantable tumors. Survival or tumor size were measured and the results are expressed as the measurement made in the treated group (T) divided by the measurement made in the vehicle treated control group (C). The tumor model used in this assay is Mammary Adenocarcinoma CD8F1 (subcutaneous) in CD8F1
# [1] = endpoint: median tumor weight (est.), dose: 12.5 mg/kg/injection, schedule: Q07DX005 (ip), vehicle: Klucel (hydroxypropylcellulose) (HPC)
# [2] = endpoint: median tumor weight (est.), dose: 25.0 mg/kg/injection, schedule: Q07DX005 (ip), vehicle: Klucel (hydroxypropylcellulose) (HPC)
# [3] = endpoint: median tumor weight (est.), dose: 50.0 mg/kg/injection, schedule: Q07DX005 (ip), vehicle: Klucel (hydroxypropylcellulose) (HPC)
# [4] = endpoint: median tumor weight (est.), dose: 100.0 mg/kg/injection, schedule: Q07DX005 (ip), vehicle: Klucel (hydroxypropylcellulose) (HPC)
# [5] = endpoint: median tumor weight (est.), dose: 6.25 mg/kg/injection, schedule: Q07DX005 (ip), vehicle: saline
structure (smiles),measurement,setting,value
O=C1C=C[C@H](O)[C@@]2(CO)O[C@@H]12,T/C,"endpoint: median tumor weight change, dose: 3.12 mg/kg/injection, schedule: Q01DX001 (ip), vehicle: saline with Tween-80",65 % of control
same,T/C,"endpoint: median tumor weight change, dose: 6.25 mg/kg/injection, schedule: Q01DX001 (ip), vehicle: saline with Tween-80",61 % of control
same,T/C,"endpoint: median tumor weight change, dose: 12.5 mg/kg/injection, schedule: Q01DX001 (ip), vehicle: saline with Tween-80",90 % of control
CC[C@@]1(O)C[C@H](OC2CC(N(C)C)C(OC3CC(O)C(OC4CC(O)C(O)C(C)O4)C(C)O3)C(C)O2)c2c(cc3c(c2O)C(=O)c2c(O)ccc(O)c2C3=O)[C@H]1C(=O)OC (some centres not stated),T/C,"endpoint: median tumor weight (est.), dose: 0.75 mg/kg/injection, schedule: Q07DX005 (ip), vehicle: other",122 % of control
same,T/C,"endpoint: median tumor weight (est.), dose: 3.0 mg/kg/injection, schedule: Q07DX005 (ip), vehicle: other",84 % of control
O=[N+]([O-])/C=C\c1ccc2c(c1)OCO2,T/C,"endpoint: median tumor weight (est.), dose: 6.25 mg/kg/injection, schedule: Q07DX005 (ip), vehicle: Klucel (hydroxypropylcellulose) (HPC)",102 % of control
same,T/C,[1],59 % of control
same,T/C,[2],86 % of control
same,T/C,[3],60 % of control
same,T/C,[4],55 % of control
same,T/C,"endpoint: median tumor weight (est.), dose: 200.0 mg/kg/injection, schedule: Q07DX005 (ip), vehicle: Klucel (hydroxypropylcellulose) (HPC)",83 % of control
O=C([CH-]C(=O)C(F)(F)F)c1ccccc1.O=C([CH-]C(=O)C(F)(F)F)c1ccccc1.O=C([CH-]C(=O)C(F)(F)F)c1ccccc1.O=C([CH-]C(=O)C(F)(F)F)c1ccccc1.[Eu+3].c1ccncc1,T/C,[1],109 % of control
same,T/C,[2],109 % of control
same,T/C,[3],103 % of control
same,T/C,[4],95 % of control
same,T/C,"endpoint: median tumor weight (est.), dose: 400.0 mg/kg/injection, schedule: Q07DX005 (ip), vehicle: Klucel (hydroxypropylcellulose) (HPC)",110 % of control
C[n+]1c(-c2cccc3ccccc23)c2cc(N)ccc2c2ccccc21,T/C,"endpoint: median tumor weight (est.), dose: 3.12 mg/kg/injection, schedule: Q07DX005 (ip), vehicle: saline",71 % of control
same,T/C,[5],99 % of control
same,T/C,"endpoint: median tumor weight (est.), dose: 12.5 mg/kg/injection, schedule: Q07DX005 (ip), vehicle: saline",49 % of control
O=C(Nc1ccccc1)c1c(O)[nH]c(=S)[nH]c1=O,T/C,"endpoint: median tumor weight change, dose: 56.0 mg/kg/injection, schedule: Q01DX001 (ip), vehicle: saline with Tween-80",61 % of control
same,T/C,"endpoint: median tumor weight change, dose: 112.0 mg/kg/injection, schedule: Q01DX001 (ip), vehicle: saline with Tween-80",80 % of control
CCCCC(=O)OCC(=O)[C@]1(O)Cc2c(O)c3c(c(O)c2[C@@H](OC2CC(NC(=O)C(F)(F)F)C(O)C(C)O2)C1)C(=O)c1c(OC)cccc1C3=O (some centres not stated),T/C,"endpoint: median tumor weight (est.), dose: 8.0 mg/kg/injection, schedule: Q07DX005 (ip), vehicle: distilled water + Tween-80",77 % of control
same,T/C,"endpoint: median tumor weight (est.), dose: 16.0 mg/kg/injection, schedule: Q07DX005 (ip), vehicle: distilled water + Tween-80",86 % of control
same,T/C,"endpoint: median tumor weight (est.), dose: 32.0 mg/kg/injection, schedule: Q07DX005 (ip), vehicle: distilled water + Tween-80",58 % of control
same,T/C,"endpoint: median tumor weight (est.), dose: 44.0 mg/kg/injection, schedule: Q07DX004 (ip), vehicle: clinical formulation",51 % of control
same,T/C,"endpoint: median tumor weight (est.), dose: 64.0 mg/kg/injection, schedule: Q07DX005 (ip), vehicle: distilled water + Tween-80",18 % of control
same,T/C,"endpoint: median tumor weight (est.), dose: 67.0 mg/kg/injection, schedule: Q07DX004 (ip), vehicle: clinical formulation",32 % of control
same,T/C,"endpoint: median tumor weight (est.), dose: 100.0 mg/kg/injection, schedule: Q07DX004 (ip), vehicle: clinical formulation",10 % of control
same,T/C,"endpoint: median tumor weight (est.), dose: 128.0 mg/kg/injection, schedule: Q07DX005 (ip), vehicle: distilled water + Tween-80",2 % of control
same,T/C,"endpoint: median tumor weight (est.), dose: 150.0 mg/kg/injection, schedule: Q07DX004 (ip), vehicle: clinical formulation",3 % of control
same,T/C,"endpoint: median tumor weight change, dose: 90.0 mg/kg/injection, schedule: Q01DX001 (ip), vehicle: clinical formulation",45 % of control
CC1CC(C)CC(C)C(O)/C(C#N)=C/C=C/CC(C2CCCC2C(=O)O)OC(=O)CC(O)C(C)C1 (configuration not stated),T/C,"endpoint: median tumor weight (est.), dose: 0.5 mg/kg/injection, schedule: Q07DX005 (ip), vehicle: Klucel (hydroxypropylcellulose) (HPC)",71 % of control
same,T/C,"endpoint: median tumor weight (est.), dose: 1.0 mg/kg/injection, schedule: Q07DX005 (ip), vehicle: Klucel (hydroxypropylcellulose) (HPC)",59 % of control
same,T/C,"endpoint: median tumor weight (est.), dose: 2.0 mg/kg/injection, schedule: Q07DX005 (ip), vehicle: Klucel (hydroxypropylcellulose) (HPC)",71 % of control
same,T/C,"endpoint: median tumor weight (est.), dose: 3.0 mg/kg/injection, schedule: Q07DX005 (ip), vehicle: Klucel (hydroxypropylcellulose) (HPC)",105 % of control
same,T/C,"endpoint: median tumor weight (est.), dose: 4.0 mg/kg/injection, schedule: Q07DX005 (ip), vehicle: Klucel (hydroxypropylcellulose) (HPC)",114 % of control
same,T/C,"endpoint: median tumor weight (est.), dose: 6.0 mg/kg/injection, schedule: Q07DX005 (ip), vehicle: Klucel (hydroxypropylcellulose) (HPC)",124 % of control
same,T/C,"endpoint: median tumor weight (est.), dose: 8.0 mg/kg/injection, schedule: Q07DX005 (ip), vehicle: Klucel (hydroxypropylcellulose) (HPC)",36 % of control
same,T/C,"endpoint: median tumor weight (est.), dose: 12.0 mg/kg/injection, schedule: Q07DX005 (ip), vehicle: Klucel (hydroxypropylcellulose) (HPC)",102 % of control
same,T/C,"endpoint: median tumor weight (est.), dose: 16.0 mg/kg/injection, schedule: Q07DX005 (ip), vehicle: Klucel (hydroxypropylcellulose) (HPC)",14 % of control
NCCCC(N)(C(=O)O)C(F)F (configuration not stated),T/C,"endpoint: median tumor weight change, dose: 125.0 mg/kg/injection, schedule: Q01DX001 (ip), vehicle: distilled water + alcohol",29 % of control
same,T/C,"endpoint: median tumor weight change, dose: 250.0 mg/kg/injection, schedule: Q01DX001 (ip), vehicle: distilled water + alcohol",51 % of control
same,T/C,"endpoint: median tumor weight change, dose: 500.0 mg/kg/injection, schedule: Q01DX001 (ip), vehicle: distilled water + alcohol",64 % of control
same,T/C,"endpoint: median tumor weight change, dose: 1000.0 mg/kg/injection, schedule: Q01DX001 (ip), vehicle: distilled water + alcohol",36 % of control
same,T/C,"endpoint: median tumor weight change, dose: 2000.0 mg/kg/injection, schedule: Q01DX001 (ip), vehicle: distilled water + alcohol",72 % of control
CC1(C)N=C(N)N=C(N)N1c1ccc(F)c(C(F)(F)F)c1,T/C,[5],97 % of control
same,T/C,"endpoint: median tumor weight (est.), dose: 100.0 mg/kg/injection, schedule: Q07DX005 (ip), vehicle: saline",61 % of control
CN1CCN(Cc2nc3cccc4c3c([n+]2[O-])-c2ccccc2-4)CC1,T/C,"endpoint: median tumor weight (est.), dose: 12.5 mg/kg/injection, schedule: Q07DX005 (ip), vehicle: saline with Tween-80",180 % of control
same,T/C,"endpoint: median tumor weight (est.), dose: 25.0 mg/kg/injection, schedule: Q07DX005 (ip), vehicle: saline with Tween-80",114 % of control
same,T/C,"endpoint: median tumor weight (est.), dose: 50.0 mg/kg/injection, schedule: Q07DX005 (ip), vehicle: saline with Tween-80",99 % of control
same,T/C,"endpoint: median tumor weight (est.), dose: 100.0 mg/kg/injection, schedule: Q07DX005 (ip), vehicle: saline with Tween-80",120 % of control
same,T/C,"endpoint: median tumor weight (est.), dose: 200.0 mg/kg/injection, schedule: Q07DX005 (ip), vehicle: saline with Tween-80",68 % of control
